For the experiment, the target named is BioA, adenosylmethionine-8-amino-7-oxononanoate aminotransferase (Mycobacterium tuberculosis). Briefly: BioA aminotransferase inhibition, biochemical, coupled fluorescence displacement, 20-point, dry powder, dose response (AID 743357). Particulars: coupled fluorescence displacement assay.
Setting [1] is: measured here: test 2 replicate AC50.
Setting [2] is: measured here: test 1 replicate AC50.

Activity calls are given as the source filed them. The rule behind the calls is not given here. Where only a bound is given, the exact number is not on record here.

Turning to `CC(=O)c1ccc(NCCNC(=O)c2ccc3c(c2)OCO3)cc1`, under “at 10 µM (top of the series)”, the “activity change, negative = inhibition” value was “inactive”.

Take `CN(C)S(=O)(=O)c1ccc(N2CCN(C(=O)c3ccc4c(c3)OCO4)CC2)cc1`: the “activity change, negative = inhibition” value (at 10 µM (top of the series)) is “inactive”.

Usually AC50 stands for the concentration at which the activity in the assay is half-maximal. Take `COCC(=O)N1CC[C@@H]2[C@@H](CO)N(C)c3ccc(-c4cccc(F)c4)cc3[C@@H]21`: the AC50 was 0.0554 µM. Moreover, the AC50 under setting [1] came out at 0.0554 µM.

`CC(=O)c1ccc(N2CCN(S(=O)(=O)c3ccc4c(c3)OCO4)CC2)cc1`: the “activity change, negative = inhibition” value (at 10 µM (top of the series)) is “inactive”.

In the case of `CN1c2ccc(-c3cccc(F)c3)cc2[C@H]2[C@H](CCN2C(=O)c2ccc3c(c2)OCO3)[C@@H]1CO`, the “activity change, negative = inhibition” value (at 10 µM (top of the series)) was “inactive”.

As for `CC(=O)c1ccc(N2CCN(C(=O)Nc3ccc4c(c3)OCO4)CC2)cc1`, the “activity change, negative = inhibition” value (at 10 µM (top of the series)) is “inactive”. This compound also displayed a concentration at half-maximal activity (AC50) under setting [2] of more than 20 µM.

Turning to `CN1c2ccc(-c3cccc(F)c3)cc2[C@H]2[C@H](CCN2C(=O)Cc2cccnc2)[C@H]1CO`, the “activity change, negative = inhibition” value (at 10 µM (top of the series)) is “inactive”. Under setting [1], the AC50 was more than 20 µM.

On to `CN1c2ccc(-c3cccc(F)c3)cc2[C@@H]2[C@@H](CCN2C(=O)c2ccc3c(c2)OCO3)[C@H]1CO`, for which the “activity change, negative = inhibition” value (at 10 µM (top of the series)) is “inactive”.

For the compound `CN1c2ccc(-c3cccc(F)c3)cc2[C@H]2[C@H](CCN2C(=O)Cc2ccccc2)[C@H]1CO`, the “activity change, negative = inhibition” value (at 10 µM (top of the series)) was “inactive”.

On to `CC(=O)c1ccc(N2CCN(C(=O)c3ccccc3Cl)CC2)cc1`, for which the AC50 was 8.24 µM. In addition, the AC50 under setting [1] turned out to be 8.24 µM.

Take `COc1cc(C(=O)N2CCN(c3ccc(C(C)=O)cc3)CC2)cc2c1OCO2`: the AC50 was 0.181 µM. For the same compound, under setting [2], the AC50 amounted to 0.181 µM.

As for `CC(=O)c1ccc(N2CCCN(C(=O)c3ccc4c(c3)OCO4)CC2)cc1`, the AC50 is 0.289 µM. Under setting [2], the AC50 came out at 0.289 µM.

For `COc1cccc(NC(=O)N2CC[C@@H]3[C@@H](CO)N(C)c4ccc(-c5cccc(F)c5)cc4[C@@H]32)c1`, where the note is “at 10 µM (top of the series)”, the “activity change, negative = inhibition” value was “inactive”.

`CC(=O)c1ccc(N2CCN(C(=O)c3ccc4c(c3)OC(C)(C)O4)CC2)cc1`: where the note is “at 10 µM (top of the series)”, the “activity change, negative = inhibition” value was “inactive”.

Turning to `CN1c2ccc(-c3cccc(F)c3)cc2[C@H]2[C@H](CCN2C(=O)Nc2ccccc2F)[C@H]1CO`, the “activity change, negative = inhibition” value (at 10 µM (top of the series)) is “inactive”.

Turning to `CN1c2ccc(-c3ccc(F)cc3)cc2[C@H]2[C@H](CCN2C(=O)Nc2ccc(F)cc2)[C@H]1CO`, for the setting “at 10 µM (top of the series)”, the “activity change, negative = inhibition” value is “inactive”.

In the case of `CN1c2ccc(-c3ccc(F)cc3)cc2[C@H]2[C@H](CCN2C(=O)Cc2cccnc2)[C@H]1CO`, where the note is “at 9 µM (top of the series)”, the “activity change, negative = inhibition” value is “inactive”.

For the compound `CC(=O)c1ccc(N2CCN(C(=O)c3ccc4c(c3)OCO4)[C@H](C)C2)cc1`, the AC50 was 0.0553 µM. For the same compound, the concentration at half-maximal activity (AC50) under setting [1] amounted to 0.0553 µM.

For the compound `COc1ccc(NC(=O)N2CC[C@@H]3[C@@H](CO)N(C)c4ccc(-c5ccc(F)cc5)cc4[C@@H]32)cc1`, the “activity change, negative = inhibition” value (at 10 µM (top of the series)) was “inactive”.

Turning to `CC(=O)c1ccc(N2CC3(CN(C(=O)c4ccc5c(c4)OCO5)C3)C2)cc1`, the “activity change, negative = inhibition” value (at 10 µM (top of the series)) was “inactive”.

With `O=C(c1ccc2c(c1)OCO2)N1CCN(c2ccc(S(=O)(=O)C(F)(F)F)cc2)CC1`, the “activity change, negative = inhibition” value (at 10 µM (top of the series)) was “inactive”.

Take `O=C(c1ccc2c(c1)OCO2)N1CCN(c2ccc(C(F)(F)F)cc2)CC1`: where the note is “at 10 µM (top of the series)”, the “activity change, negative = inhibition” value is “inactive”. For the same compound, under setting [2], the AC50 was more than 20 µM.

As to `CC(=O)c1ccc(N2CCN(C(=O)c3cc4c(cc3C)OCO4)CC2)cc1`, the AC50 is 1.09 µM. Further, the AC50 under setting [2] amounted to 1.09 µM.

Take `COc1ccccc1C(=O)N1CCN(c2ccc(C(C)=O)cc2)CC1`: where the note is “at 10 µM (top of the series)”, the “activity change, negative = inhibition” value was “inactive”. The compound also displayed an AC50 under setting [1] of more than 20 µM.

On to `CC(=O)c1ccc(N2CCN(C(=O)c3ccccc3F)CC2)cc1`, for which the AC50 was 6.4 µM. This compound came in with an AC50 under setting [1] of 6.4 µM.

On to `CN1c2ccc(-c3cccc(F)c3)cc2[C@@H]2[C@@H](CCN2C(=O)c2ccc3c(c2)OCO3)[C@@H]1CO`, for which the “activity change, negative = inhibition” value (at 5.6 µM (top of the series)) was “inactive”.

For `CNS(=O)(=O)c1ccc(N2CCN(C(=O)c3ccc4c(c3)OCO4)CC2)cc1`, the “activity change, negative = inhibition” value (at 10 µM (top of the series)) was “inactive”.

Turning to `COC(=O)CCCCCCC(=O)N1CC[C@@H]2[C@@H](CO)N(C)c3ccc(-c4cccc(F)c4)cc3[C@@H]21`, the “activity change, negative = inhibition” value (at 10 µM (top of the series)) was “inactive”. The compound also yielded an AC50 under setting [1] of more than 20 µM.

As to `CC(=O)c1ccc(N2CCN(C(=O)c3ccc4c(c3)OC(F)(F)O4)CC2)cc1`, the “activity change, negative = inhibition” value (at 10 µM (top of the series)) is “inactive”.

As to `CC(=O)c1ccc(N2CC3CC2CN3C(=O)c2ccc3c(c2)OCO3)cc1` (stereo not given), the “activity change, negative = inhibition” value (at 10 µM (top of the series)) is “inactive”. The same compound yielded an AC50 under setting [2] of more than 20 µM.

For the compound `CCC(=O)N1CC[C@@H]2[C@@H](CO)N(C)c3ccc(-c4ccc(F)cc4)cc3[C@@H]21`, the AC50 is 2.82 µM. The compound further yielded an AC50 under setting [1] of 2.82 µM.

In the case of `CC(=O)c1ccc(N2CCN(C(=O)c3ccc(Cl)c(Cl)c3)CC2)cc1`, the AC50 was 0.217 µM. Under setting [2], this compound gave an AC50 of 0.217 µM.

As for `CC(=O)c1ccc(N2CCN(C(=O)c3cc4c(cn3)OCO4)CC2)cc1`, the “activity change, negative = inhibition” value (at 10 µM (top of the series)) was “inactive”. Moreover, under setting [2], the AC50 was more than 20 µM.

In the case of `CCCCCCCC(=O)N1CC[C@@H]2[C@@H](CO)N(C)c3ccc(-c4cccc(F)c4)cc3[C@@H]21`, the “activity change, negative = inhibition” value (at 10 µM (top of the series)) was “inactive”.

On to `COc1ccccc1NC(=O)N1CC[C@@H]2[C@@H](CO)N(C)c3ccc(-c4cccc(F)c4)cc3[C@@H]21`, for which the “activity change, negative = inhibition” value (at 10 µM (top of the series)) was “inactive”.

In the case of `O=C(c1ccc2c(c1)OCO2)N1CCN(c2ccc(OC(F)(F)F)cc2)CC1`, under “at 10 µM (top of the series)”, the “activity change, negative = inhibition” value was “inactive”.

With `COc1ccc(NC(=O)N2CC[C@@H]3[C@@H](CO)N(C)c4ccc(-c5cccc(F)c5)cc4[C@@H]32)cc1`, for the setting “at 10 µM (top of the series)”, the “activity change, negative = inhibition” value was “inactive”.

With `CC(=O)c1ccc(N2CCN(C(=O)c3cc4c(cc3Cl)OCO4)CC2)cc1`, the concentration at half-maximal activity (AC50) is 6.57 µM. For the same compound, under setting [2], the AC50 came to 6.57 µM.

Regarding `CN1c2ccc(-c3ccc(F)cc3)cc2[C@H]2[C@H](CCN2C(=O)Cc2ccccn2)[C@H]1CO`, the “activity change, negative = inhibition” value (at 10 µM (top of the series)) was “inactive”.

Turning to `CCCNC(=O)N1CC[C@@H]2[C@@H](CO)N(C)c3ccc(-c4ccc(F)cc4)cc3[C@@H]21`, the “activity change, negative = inhibition” value (at 10 µM (top of the series)) is “inactive”. The compound further gave an AC50 under setting [1] of more than 20 µM.

For `COc1ccccc1NC(=O)N1CC[C@@H]2[C@@H](CO)N(C)c3ccc(-c4ccc(F)cc4)cc3[C@@H]21`, for the setting “at 10 µM (top of the series)”, the “activity change, negative = inhibition” value is “inactive”.

With `CNC(=O)c1ccc(N2CCN(C(=O)c3ccc4c(c3)OCO4)CC2)cc1`, where the note is “at 10 µM (top of the series)”, the “activity change, negative = inhibition” value was “inactive”. Besides, the AC50 under setting [1] is more than 20 µM.

In the case of `CC(=O)c1ccc(N2CCN(C(=O)c3cccc4c3OCO4)CC2)cc1`, the AC50 is 1.58 µM. In addition, the AC50 under setting [2] turned out to be 1.58 µM.

In the case of `CN1c2ccc(-c3ccc(F)cc3)cc2[C@H]2[C@H](CCN2C(=O)Nc2cc(F)ccc2F)[C@H]1CO`, where the note is “at 10 µM (top of the series)”, the “activity change, negative = inhibition” value is “inactive”.

Consider `CC(=O)c1ccc(N2CCN(C(=O)c3ccc4snnc4c3)CC2)cc1`, for which the AC50 is 1.85 µM. For the same compound, the AC50 under setting [2] came out at 1.85 µM.

For `CC(C)NC(=O)N1CC[C@@H]2[C@@H](CO)N(C)c3ccc(-c4ccc(F)cc4)cc3[C@@H]21`, the “activity change, negative = inhibition” value (at 10 µM (top of the series)) was “inactive”. Under setting [1], this compound registered an AC50 of more than 20 µM.

For the compound `CC(=O)c1ccc(N2CCN(C(=O)c3ccc4c(c3C)OCO4)CC2)cc1`, the AC50 was 0.0537 µM. Under setting [2], this compound showed an AC50 of 0.0537 µM.

In the case of `CC(=O)c1ccc(N2CCN(C(=O)c3ccc4ocnc4c3)CC2)cc1`, the AC50 is 0.198 µM. In addition, under setting [2], the AC50 is 0.198 µM.

With `CC(=O)c1ccc(N2CCN(C(=O)c3ccc4c(c3)OCO4)CC2)cc1`, the AC50 is 0.0497 µM. Under setting [2], the AC50 was 0.0301 µM. This compound yielded an AC50 under setting [1] of 0.0692 µM.

These data come from PubChem BioAssay AID743357 (Broad Institute, 2014).
